These results are taken from paper PMC11206519, “Multi-Endpoint Toxicological Assessment of Chrysin Loaded Oil-in-Water Emulsion System in Different Biological Models” (Nanomaterials, 2024).

The test system of one data set is S. typhimurium TA 100. Briefly: Ames test, mutagenicity. Type of data set: cell-based, Salmonella Typhimurium. The conditions noted are these: positive control. The protocol: (§1) The S. typhimurium strains TA 98 and TA 100 were used to detect frameshift and base-pair mutations, respectively. […] Then, they were poured onto minimal glucose agar containing a trace amount of histidine, following incubation at 37 °C for 48 h. Then, the revertant colonies were counted and compared with the negative control. If the number of revertant colonies in the tested sample treatment is at least twice that of the negative control (spontaneous revertant colonies), it is considered a mutagen.
On the technique in general: In the Ames test, an excess of revertant colonies over the control signals mutagenicity.

The test system of a further data set is S. typhimurium TA 98. Briefly: Ames test, mutagenicity. In kind it is cell-based, Salmonella Typhimurium. The conditions noted are these: +S9; 0.5 µg/plate, positive control. The method, then:
as §1

Data set [1] concerns D. melanogaster trans-heterozygous mwh+/+flr3 larvae of the HB cross. As to the kind of experiment: SMART wing spot test, anti-mutagenicity, HB cross. The method, then: (§2) The somatic mutation and recombination test, or the wing spot test, using D. melanogaster was employed as an in vivo system to assess the mutagenicity and anti-mutagenicity of chrysin-ES. Two different crosses were conducted: (i) a standard cross (ST) and (ii) a high bioactivation cross (HB). The standard cross larvae were obtained from virgin female of flr3/TM3, Ser crossed with males of mwh/mwh, while the HB cross larvae expressing cytochrome P450 enzymes involved in xenobiotic biotransformation were obtained from virgin females of ORR/ORR; flr^3/In (3LR) TM3, ri p^psep l (3)89Aa bx^34e e Bd^s crossed with males of mwh/mwh. The flies were cultured at a constant temperature of 25 ± 1 °C and 60–70% RH at photoperiod 12:12 (light/dark). To evaluate the mutagenicity of chrysin and chrysin-ES, a hundred larva F1 progenies derived from the above crossing were fed with instant Drosophila medium (Formula 4-24®), Carolina, Burlington, NC, USA) containing chrysin or chrysin-ES (20–120 µg/mL). DI was used as a negative control, while 20 mM urethane (URE) was used as a positive control. The larvae were reared on each medium until pupation at 25 °C. After that, forty wings of surviving flies in each group were collected for mutant analysis. The mutant spots on the wings, including small single spots, large single spots, and twin spots, were counted. The statistical significance was calculated as previously described by Frei and Würgler.
(§3) Furthermore, the anti-mutagenicity of the samples was performed by a similar procedure as mentioned above.

The subject of data set [2] is D. melanogaster trans-heterozygous mwh+/+flr3 larvae of the ST cross. As to the kind of experiment: SMART wing spot test, anti-mutagenicity, ST cross. The method, then: as §2, §3
A further data set relates to S. typhimurium TA100. As to the kind of experiment: Ames test, anti-mutagenicity. Particulars: standard mutagen alone, 0.05 µg/plate, +S9. The protocol:
(§4) Furthermore, the anti-mutagenicity of the samples was performed by a similar procedure, as mentioned above. […] The percentage inhibition (decrease revertant colony number) was calculated as in the following equation:Anti-mutagenicity (%) = [1 − (b/a)] × 100 • a = revertant colony number induced via standard mutagen (positive control). • b = revertant colony number induced by standard mutagen in the presence of each sample treatment.
(§5) The percent of inhibition between 0–20%, 21–40%, 41–60%, and higher than 60% indicate negligible, weak, moderate, and strong anti-mutagenicity, respectively.

The subject of another data set is S. typhimurium TA98. Briefly: Ames test, anti-mutagenicity. Particulars: standard mutagen alone, 0.1 µg/plate, +S9. The method, then: as §4, §5
Data set [3] concerns D. melanogaster trans-heterozygous mwh+/+flr3 larvae of the HB cross. As to the kind of experiment: SMART wing spot test, mutagenicity, HB cross. In kind it is in vivo, Drosophila melanogaster. The conditions noted are these: 20 mM, positive control.
Procedure: (§6) The somatic mutation and recombination test, or the wing spot test, using D. melanogaster was employed as an in vivo system to assess the mutagenicity and anti-mutagenicity of chrysin-ES. Two different crosses were conducted: (i) a standard cross (ST) and (ii) a high bioactivation cross (HB) [18]. The standard cross larvae were obtained from virgin female of flr3/TM3, Ser crossed with males of mwh/mwh, while the HB cross larvae expressing cytochrome P450 enzymes involved in xenobiotic biotransformation were obtained from virgin females of ORR/ORR; flr^3/In (3LR) TM3, ri p^psep l (3)89Aa bx^34e e Bd^s crossed with males of mwh/mwh. The flies were cultured at a constant temperature of 25 ± 1 °C and 60–70% RH at photoperiod 12:12 (light/dark). To evaluate the mutagenicity of chrysin and chrysin-ES, a hundred larva F1 progenies derived from the above crossing were fed with instant Drosophila medium (Formula 4-24®), Carolina, Burlington, NC, USA) containing chrysin or chrysin-ES (20–120 µg/mL). DI was used as a negative control, while 20 mM urethane (URE) was used as a positive control. The larvae were reared on each medium until pupation at 25 °C. After that, forty wings of surviving flies in each group were collected for mutant analysis. The mutant spots on the wings, including small single spots, large single spots, and twin spots, were counted.
Data set [4] deals with D. melanogaster trans-heterozygous mwh+/+flr3 larvae of the ST cross. Briefly: SMART wing spot test, mutagenicity, ST cross. In kind it is in vivo, Drosophila melanogaster. Particulars: 20 mM, positive control.
Procedure: as §6
[5] abbreviates: NMU alone (sodium nitrite 36 mM: methylurea 10 mM).
Setting [6] is: Nitrite alone (sodium nitrite 36 mM).

Where “and” joins values, the source holds several entries; their conditions need not be identical. Equal values may be shown once.

Take `Nc1ccc2cc3ccccc3cc2c1` [2-AA, 2-Aminoanthracene, reference compound]: the “Number of Revertant Colonies” value is 487 ± 29 in the data set on S. typhimurium TA 100 (+S9, 0.5 µg/plate) and 459 ± 44 in the data set on S. typhimurium TA 98.
Take `NC(=O)C(=Cc1ccc([N+](=O)[O-])o1)c1ccco1` [AF-2, 2-(2-Furyl)-3-(5-nitro-2-furyl) acrylamide, reference compound]: the “Number of Revertant Colonies” value in the data set on S. typhimurium TA 100 (−S9, 0.1 µg/plate) came out at 439 ± 30.
Regarding `CCOS(C)(=O)=O` [EMS, ethyl methanesulfonate, reference compound], in data set [1] (EMS 5 mM alone), the “Mutant spots per individual (number of spots), Large Single” value was 0.40 (16); the “Mutant spots per individual (number of spots), Small Single” value is 10.00 (400); the “Mutant spots per individual (number of spots), Total” value is listed as 10.40 (416); the “Mutant spots per individual (number of spots), Twin” value (“Mutant spots per individual … Twin” below) is reported as 0 (0). In addition, in data set [1] (EMS 5 mM alone, vs DI), the “Statistical diagnosis, Large Single” value is recorded as “+” and the “Statistical diagnosis, Small Single” value is reported as “+”. In data set [2] (EMS 5 mM alone), the “Mutant spots per individual (number of spots), Large Single” value was 1.75 (70); the “Mutant spots per individual (number of spots), Small Single” value is on record as 5.60 (224); the “Mutant spots per individual (number of spots), Total” value was 7.80 (312); the “Mutant spots per individual … Twin” value is listed as 0.45 (18). In data set [2] (EMS 5 mM alone, vs DI), the “Statistical diagnosis, Large Single” value is recorded as “+”; the “Statistical diagnosis, Small Single” value is given as “+”; the “Statistical diagnosis, Total” value was “+”; the “Statistical diagnosis, Twin” value was “+”.
In the case of `Cn1c(N)nc2c3cccnc3ccc21` [IQ, 2-Amino-3-methylimidazo(4,5-f) quinoline, reference compound], the “Number of Revertant Colonies” value in the data set on S. typhimurium TA100 was found to be 730 ± 39.
For `CNC(N)=O` [Methylurea, methylurea, reference compound], the “Statistical diagnosis, Small Single” value in data set [1] (in vivo) was “−”. In data set [2] (in vivo), the “Statistical diagnosis, Small Single” value is “−” and the “Statistical diagnosis, Total” value is listed as “−”.
For `CN(N=O)C(N)=O` [NMU, N-nitrosomethylurea, reference compound], in data set [1] (setting [5]), the “Mutant spots per individual (number of spots), Large Single” value is listed as 0.40 (16); the “Mutant spots per individual (number of spots), Small Single” value was 1.43 (57); the “Mutant spots per individual (number of spots), Total” value was 1.93 (77); the “Mutant spots per individual … Twin” value is recorded as 0.10 (4). In data set [1] (NMU alone, vs DI), the “Statistical diagnosis, Large Single” value is listed as “+”; the “Statistical diagnosis, Small Single” value was “−”; the “Statistical diagnosis, Total” value was “+”. Also, in data set [2] (setting [5]), the “Mutant spots per individual (number of spots), Large Single” value is 0.10 (4); the “Mutant spots per individual (number of spots), Small Single” value is listed as 1.70 (68); the “Mutant spots per individual (number of spots), Total” value is 2.00 (80); the “Mutant spots per individual … Twin” value is 0.20 (8). Besides, in data set [2] (NMU alone, vs DI), the “Statistical diagnosis, Small Single” value is “+”; the “Statistical diagnosis, Total” value is given as “+”; the “Statistical diagnosis, Twin” value is reported as “+”.
For the compound `O=N[O-].[Na+]` [Nitrite, sodium nitrite, reference compound], in data set [1] (setting [6]), the “Mutant spots per individual (number of spots), Large Single” value is on record as 0.03 (1); the “Mutant spots per individual (number of spots), Small Single” value is reported as 0.25 (10); the “Mutant spots per individual (number of spots), Total” value is 0.28 (11); the “Mutant spots per individual … Twin” value was 0 (0). Further, the “Statistical diagnosis, Small Single” value in data set [1] (Nitrite alone, vs DI) is on record as “−”. Also, in data set [2] (setting [6]), the “Mutant spots per individual (number of spots), Large Single” value is on record as 0 (0); the “Mutant spots per individual (number of spots), Small Single” value was 0.05 (2); the “Mutant spots per individual (number of spots), Total” value is reported as 0.08 (3); the “Mutant spots per individual … Twin” value is on record as 0.03 (1). For the same compound, in data set [2] (Nitrite alone, vs DI), the “Statistical diagnosis, Small Single” value was “−” and the “Statistical diagnosis, Total” value is recorded as “−”.
`Cn1c(N)nc2ncc(-c3ccccc3)cc21` [PhIP, 2-amino-1-methyl-6-phenylimidazo (4,5-b) pyridine, reference compound]: the “Number of Revertant Colonies” value in the data set on S. typhimurium TA98 was found to be 400 ± 11.
In the case of `CCOC(N)=O` [URE, urethane, reference compound], in data set [3], the “Mutant spots per individual (number of spots), Large Single” value was 3.10 (62); the “Mutant spots per individual (number of spots), Small Single” value was 10.10 (202); the “Mutant spots per individual (number of spots), Total Spots” value is 14.50 and 14.50 (290); the “Mutant spots per individual … Twin” value is on record as 1.30 (26). Besides, in data set [3] (vs DI), the “Statistical diagnosis, Large Single” value is listed as “+”; the “Statistical diagnosis, Small Single” value was “+”; the “Statistical diagnosis, Total Spots” value is listed as “+”; the “Statistical diagnosis, Twin” value is recorded as “+”. Moreover, in data set [4], the “Mutant spots per individual (number of spots), Large Single” value is on record as 0.08 (3); the “Mutant spots per individual (number of spots), Small Single” value is 3.73 (149); the “Mutant spots per individual (number of spots), Total Spots” value is 3.80 and 3.80 (152); the “Mutant spots per individual … Twin” value is recorded as 0 (0). For the same compound, in data set [4] (vs DI), the “Statistical diagnosis, Large Single” value is recorded as “+”; the “Statistical diagnosis, Small Single” value is “+”; the “Statistical diagnosis, Total Spots” value was “+”.
